This is an account of results in patent publication US11970493B2, “Autotaxin inhibitor compounds” (ILDONG PHARMACEUTICAL CO., LTD., priority 2020, dated 2024).

Structures can show the parent of a compound that is named as a salt.

Usually IC50 stands for the midpoint of a concentration-inhibition curve. A low value points to greater potency in that assay.

The experiment concerns the target hATX/ENPP2 (Homo sapiens, UniProt Q13822). As to the kind of experiment: hATX/ENPP2 biochemical assay using 16:0-LPC as substrate (Amplex Red/choline oxidase/HRP fluorescence). The conditions noted are these: hENPP2 2.5 nM, LPC (16:0) substrate. On the procedure:
The enzyme is diluted in 50 mM Tris-HCl pH 8.0, 140 mM NaCl, 5 mM CaCl2, 0.01% Triton X-100 in a total volume of 5 μL. The aqueous solution of enzyme is added to the wells and incubated with different concentrations of the compounds at room temperature for 15 min. The reaction is started by the addition of 5 μL of 80 μM LPC (16:0) and 10 μL of the detection mixture containing 200 μM Amplex Red, 10 U/mL choline oxidase and 4 U/mL HRP. Fluorescence at 590 nm was measured kinetically with excitation at 530 nm. The slope of the curve (from 60 to 70 min of the reaction time) was used to calculate the compounds' IC50 values.

The compound `CCc1nc2ccc(-c3cnc(NCC4CNC4)nc3)cn2c1N(C)c1nc(-c2ccc(F)cc2)c(C#N)s1` [38 (formate salt), 2-((6-(2-((azetidin-3-ylmethyl)amino)pyrimidin-5-yl)-2-ethylimidazo[1,2-a]pyridin-3-yl)(methyl)amino)-4-(4-fluorophenyl)thiazole-5-carbonitrile formate] returned an IC50 greater than 200 nM.
`CCc1nc2ccc(-c3cnc(N4CCN(C(=O)NC5CNC5)CC4)nc3)cn2c1N(C)c1nc(-c2ccc(F)cc2)c(C#N)s1` [66 (hydrochloride salt), N-(azetidin-3-yl)-4-(5-(3-((5-cyano-4-(4-fluorophenyl)thiazol-2-yl)(methyl)amino)-2-ethylimidazo[1,2-a]pyridin-6-yl)pyrimidin-2-yl)piperazine-1-carboxamide hydrochloride] showed an IC50 of no more than 20 nM.
On to `CCc1nc2ccc(-c3cnc(N4CC(C(=O)NC5CNC5)C4)nc3)cn2c1N(C)c1nc(-c2ccc(F)cc2)c(C#N)s1` [70 (hydrochloride salt), N-(azetidin-3-yl)-1-(5-(3-((5-cyano-4-(4-fluorophenyl)thiazol-2-yl)(methyl)amino)-2-ethylimidazo[1,2-a]pyridin-6-yl)pyrimidin-2-vl) azetidine-3-carboxamide hydrochloride], for which the IC50 is 20 to 200 nM.
In the case of `CCc1nc2ccc(-c3cnc(N4CC(C(=O)NC5CCNCC5)C4)nc3)cn2c1N(C)c1nc(-c2ccc(F)cc2)c(C#N)s1` [71 (hydrochloride salt), 1-(5-(3-((5-cyano-4-(4-fluorophenyl)thiazol-2-yl)(methyl)amino)-2-ethylimidazo[1,2-a]pyridin-6-yl)pyrimidin-2-yl)-N-(piperidin-4-yl) azetidine-3-carboxamide hydrochloride], the IC50 lay in the range of 20 to 200 nM.
In turn, `CCc1nc2ccc(-c3cnc(N4CC(NC5CN(C)C5)C4)nc3)cn2c1N(C)c1nc(-c2ccc(F)cc2)c(C#N)s1` [80 (hydrochloride salt), 2-((2-ethyl-6-(2-(3-((I-methylazetidin-3-yl)amino)azetidin-1-yl)pyrimidin-5-yl)imidazo[1,2-a]pyridin-3-yl)(methyl)amino)-4-(4-fluorophenyl)thiazole-5-carbonitrile hydrochloride] gave an IC50 of 20 to 200 nM.
`CCc1nc2ccc(-c3cnc(N4CC(NC(=O)[C@@H]5C[C@@H](O)CN5C)C4)nc3)cn2c1N(C)c1nc(-c2ccc(F)cc2)c(C#N)s1` [81 (hydrochloride salt), (2S,4R)—N-(1-(5-(3-((5-cyano-4-(4-fluorophenyl)thiazol-2-yl)(methyl)amino)-2-ethylimidazo[1,2-a]pyridin-6-yl)pyrimidin-2-yl)azetidin-3-yl)-4-hydroxy-1-methyl pyrrolidine-2-carboxamide hydrochloride]: the IC50 was 20 to 200 nM.
The compound `CCc1nc2ccc(-c3cnc(N4CC(N)C4)nc3)cn2c1N(C)c1nc(-c2ccc(F)cc2)c(C#N)s1` [Compound 3, 2-((6-(2-(3-aminoazetidin-1-yl)pyrimidin-5-yl)-2-ethylimidazo[1,2-a]pyridin-3-yl)(methyl)amino)-4-(4-fluorophenyl)thiazole-5-carbonitrile] gave an IC50 of 20 to 200 nM.
Compound `CCc1nc2ccc(-c3cnc(N4CCNCC4)nc3)cn2c1N(C)c1nc(-c2ccc(F)cc2)c(C#N)s1` [Compound 4, 2-((2-ethyl-6-(2-(piperazin-1-yl)pyrimidin-5-yl)imidazo[1,2-a]pyridin-3-yl)(methyl)amino)-4-(4-fluorophenyl)thiazole-5-carbonitrile] displayed an IC50 of 20 to 200 nM.
In the case of `CCc1nc2ccc(-c3cnc(N4CCN(C(=O)[C@@H]5C[C@@H](O)CN5)CC4)nc3)cn2c1N(C)c1nc(-c2ccc(F)cc2)c(C#N)s1` [Compound 5, 2-((2-ethyl-6-(2-(4-((2S,4R)-4-hydroxypyrrolidine-2-carbonyl)piperazin-1-yl)pyrimidin-5-yl)imidazo[1,2-a]pyridin-3-yl)(methyl)amino)-4-(4-fluorophenyl)thiazole-5-carbonitrile] it was no more than 20 nM.
The compound `CCc1nc2ccc(-c3cnc(N4CCN(C(=O)[C@H]5C[C@@H](O)CN5)CC4)nc3)cn2c1N(C)c1nc(-c2ccc(F)cc2)c(C#N)s1` [Compound 6, 2-((2-ethyl-6-(2-(4-((2R,4R)-4-hydroxypyrrolidine-2-carbonyl)piperazin-1-yl)pyrimidin-5-yl)imidazo[1,2-a]pyridin-3-yl) (methyl)amino)-4-(4-fluorophenyl)thiazole-5-carbonitrile] displayed an IC50 of no more than 20 nM.
In the case of `CCc1nc2ccc(-c3cnc(N4CCN(C(=O)[C@@H]5C[C@H](O)CN5)CC4)nc3)cn2c1N(C)c1nc(-c2ccc(F)cc2)c(C#N)s1` [Compound 7, 2-((2-ethyl-6-(2-(4-((2S,4S)-4-hydroxypyrrolidine-2-carbonyl)piperazin-1-yl)pyrimidin-5-yl)imidazo[1,2-a]pyridin-3-yl)(methyl)amino)-4-(4-fluorophenyl) thiazole-5-carbonitrile], the IC50 was no more than 20 nM.
Compound `CCc1nc2ccc(-c3cnc(N4CCN(C(=O)[C@H]5C[C@H](O)CN5)CC4)nc3)cn2c1N(C)c1nc(-c2ccc(F)cc2)c(C#N)s1` [Compound 8, 2-((2-ethyl-6-(2-(4-((2R,4S)-4-hydroxypyrrolidine-2-carbonyl)piperazin-1-yl)pyrimidin-5-yl)imidazo[1,2-a]pyridin-3-yl)(methyl)amino)-4-(4-fluorophenyl)thiazole-5-carbonitrile] came in with an IC50 of no more than 20 nM.
Compound `CCc1nc2ccc(-c3cnc(N4CCN(C(=O)C5CNC5)CC4)nc3)cn2c1N(C)c1nc(-c2ccc(F)cc2)c(C#N)s1` [Compound 9, 2-((6-(2-(4-(azetidine-3-carbonyl)piperazin-1-yl)pyrimidin-5-yl)-2-ethylimidazo[1,2-a]pyridin-3-yl)(methyl)amino)-4-(4-fluorophenyl)thiazole-5-carbonitrile] registered an IC50 of no more than 20 nM.
With `CCc1nc2ccc(-c3cnc(C(=O)N4CC(O)C4)nc3)cn2c1N(C)c1nc(-c2ccc(F)cc2)c(C#N)s1` [Compound 11, 2-((2-ethyl-6-(2-(3-hydroxyazetidine-1-carbonyl)pyrimidin-5-yl)imidazo[1,2-a]pyridin-3-yl)(methyl)amino)-4-(4-fluorophenyl)thiazole-5-carbonitrile], the IC50 was in the range of 20 to 200 nM.
`CCc1nc2ccc(-c3cnc(C(=O)N4CC(NC5CC5)C4)nc3)cn2c1N(C)c1nc(-c2ccc(F)cc2)c(C#N)s1` [Compound 12, 2-((6-(2-(3-(cyclopropylamino)azetidine-1-carbonyl)pyrimidin-5-yl)-2-ethylimidazo[1,2-a]pyridin-3-yl)(methyl)amino)-4-(4-fluorophenyl)thiazole-5-carbonitrile] returned an IC50 of 20 to 200 nM.
Regarding `CCc1nc2ccc(-c3cnc(C(=O)N4CC(NC5CCC5)C4)nc3)cn2c1N(C)c1nc(-c2ccc(F)cc2)c(C#N)s1` [Compound 13, 2-((6-(2-(3-(cyclobutylamino)azetidine-1-carbonyl)pyrimidin-5-yl)-2-ethylimidazo[1,2-a]pyridin-3-yl)(methyl)amino)-4-(4-fluorophenyl)thiazole-5-carbonitrile], the IC50 is greater than 200 nM.
The result for `CCc1nc2ccc(-c3cnc(C(=O)N4CC(N5CCC5)C4)nc3)cn2c1N(C)c1nc(-c2ccc(F)cc2)c(C#N)s1` [Compound 14, 2-((6-(2-([1,3′-biazetidine]-1′-carbonyl)pyrimidin-5-yl)-2-ethylimidazo[1,2-a]pyridin-3-yl)(methyl)amino)-4-(4-fluorophenyl) thiazole-5-carbonitrile] reads 20 to 200 nM; that for `CCc1nc2ccc(-c3cnc(C(=O)N4CCC(O)CC4)nc3)cn2c1N(C)c1nc(-c2ccc(F)cc2)c(C#N)s1` [Compound 15, 2-((2-ethyl-6-(2-(4-hydroxypiperidine-1-carbonyl)pyrimidin-5-yl)imidazo[1,2-a]pyridin-3-yl)(methyl)amino)-4-(4-fluorophenyl)thiazole-5-carbonitrile], 20 to 200 nM.
Consider `CCc1nc2ccc(-c3cnc(C(=O)NC4(C#N)CC4)nc3)cn2c1N(C)c1nc(-c2ccc(F)cc2)c(C#N)s1` [Compound 16, 5-(3-((5-cyano-4-(4-fluorophenyl)thiazol-2-yl)(methyl)amino)-2-ethylimidazo[1,2-a]pyridin-6-yl)-N-(1-cyanocyclopropyl)pyrimidine-2-carboxamide], for which the IC50 lay in the range of 20 to 200 nM.
Consider `CCc1nc2ccc(-c3cnc(N4CCC(NC5(C#N)CC5)CC4)nc3)cn2c1N(C)c1nc(-c2ccc(F)cc2)c(C#N)s1` [Compound 17, 2-((6-(2-(4-((1-cyanocyclopropyl)amino)piperidin-1-yl)pyrimidin-5-yl)-2-ethylimidazo[1,2-a]pyridin-3-yl)(methyl)amino)-4-(4-fluorophenyl)thiazole-5-carbonitrile], for which the IC50 was in the range of 20 to 200 nM.
Regarding `CCc1nc2ccc(-c3cnc(N4CCC(NC5(CO)CC5)CC4)nc3)cn2c1N(C)c1nc(-c2ccc(F)cc2)c(C#N)s1` [Compound 18, 2-((2-ethyl-6-(2-(4-((1-(hydroxymethyl)cyclopropyl)amino)piperidin-1-yl)pyrimidin-5-yl)imidazo[1,2-a]pyridin-3-yl) (methyl)amino)-4-(4-fluorophenyl)thiazole-5-carbonitrile], the concentration for half-maximal inhibition (IC50) was no more than 20 nM.
Consider `CCc1nc2ccc(-c3cnc(N4CCC(NC(=O)C5(O)CC5)CC4)nc3)cn2c1N(C)c1nc(-c2ccc(F)cc2)c(C#N)s1` [Compound 19, N-(1-(5-(3-((5-cyano-4-(4-fluorophenyl)thiazol-2-yl)(methyl)amino)-2-ethylimidazo[1,2-a]pyridin-6-yl)pyrimidin-2-yl)piperidin-4-yl)-1-hydroxycyclopropane-1-carboxamide], for which the IC50 was no more than 20 nM.
